Measurements reported in US12378224B2 (Dong-A Socio Holdings Co., Ltd., priority 2016, dated 2025).

The compounds below were run against human MER (528-end) (Homo sapiens (Human), UniProt Q12866) (assay: HTRF Kinase Activity Biochemical Assay (KinEASE-TK)). Settings: 10 uM ATP.
Outline: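 Activity read-out is the HTRF ratio (665 nm over 620 nm emission, ×10,000; excitation 340 nm) after 1 h detection with 0.375 nM Eu3+-cryptate anti-TK antibody plus 0.062 uM SA-XL665. Preceding kinase step: human MER (528-end), biotinylated TK substrate, 1 h, room temperature.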

Chain of human MER (528-end) (Q12866 528-999 limits assumed): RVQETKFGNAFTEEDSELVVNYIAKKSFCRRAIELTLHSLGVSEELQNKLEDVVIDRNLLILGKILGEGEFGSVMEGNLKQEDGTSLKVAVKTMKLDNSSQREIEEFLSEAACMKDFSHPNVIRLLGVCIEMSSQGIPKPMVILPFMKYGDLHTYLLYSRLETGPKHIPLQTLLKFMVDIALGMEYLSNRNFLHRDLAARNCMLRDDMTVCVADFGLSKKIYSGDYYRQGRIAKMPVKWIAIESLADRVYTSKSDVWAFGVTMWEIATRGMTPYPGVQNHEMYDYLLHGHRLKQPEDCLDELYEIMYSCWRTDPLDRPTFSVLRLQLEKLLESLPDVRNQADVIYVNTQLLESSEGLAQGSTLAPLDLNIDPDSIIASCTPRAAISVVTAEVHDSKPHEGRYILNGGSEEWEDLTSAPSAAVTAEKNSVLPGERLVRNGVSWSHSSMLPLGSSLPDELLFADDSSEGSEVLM

Row | IC50 | SMILES
1 | > 1000 nM | COc1ccc(Oc2ccc(-c3ccc(C(=O)N4CC[C@@H](NC(=O)c5cc(-c6cnn(C)c6)cnc5N)C4)cc3)cc2)cc1 [Example 528, (R)-2-amino-N-(1-(4′-(4-methoxyphenoxy)-[1,1′-biphenyl]-4-carbonyl)pyrrolidin-3-yl)-5-(1-methyl-1H-pyrazol-4-yl)nicotinamide]
2 | > 1000 nM | CC1=C(C(=O)N2CC[C@@H](NC(=O)c3cc(-c4cnn(C)c4)cnc3N)C2)Cc2ccccc21 [Example 497, (R)-2-amino-N-(1-(3-methyl-1H-indene-2-carbonyl)pyrrolidin-3-yl)-5-(1-methyl-1H-pyrazol-4-yl)nicotinamide]
3 | 100 to 1000 nM | Nc1ncc(-c2cnn(C3CCNCC3)c2)cc1C(=O)NC1CCN(Cc2ccccc2)C1 (stereo not shown) [Example 152, 2-amino-N-(1-benzylpyrrolidin-3-yl)-5-(1-(piperidin-4-yl)-1H-pyrazol-4-yl)nicotinamide]
4 | 100 to 1000 nM | Cn1cc(-c2cnc(N)c(C(=O)N[C@@H]3CCN(Cc4cccc(-c5ccc(CO)cc5)c4)C3)c2)cn1 [Example 244, (R)-2-amino-N-(1-((4′-(hydroxymethyl)-[1,1′-biphenyl]-3-yl)methyl)pyrrolidin-3-yl)-5-(1-methyl-1H-pyrazol-4-yl)nicotinamide]
5 | 10 to 100 nM | CN1CCN(Cc2ccc(-c3cccc(NC(=S)N4CC[C@@H](NC(=O)c5cc(-c6cnn(C)c6)cnc5N)C4)c3)cc2)CC1 [Example 274, (R)-2-amino-5-(1-methyl-1H-pyrazol-4-yl)-N-(1-((4′-((4-methylpiperazin-1-yl)methyl)-[1,1′-biphenyl]-3-yl)carbamothioyl)pyrrolidin-3-yl)nicotinamide]
6 | 100 to 1000 nM | Cc1sc(-c2ccc(C(=O)N3CC[C@@H](NC(=O)c4cc(-c5cnn(C)c5)cnc4N)C3)cc2)c(C)c1Br [Example 522, (R)-2-amino-N-(1-(4-(4-bromo-3,5-dimethylthiophen-2-yl)benzoyl)pyrrolidin-3-yl)-5-(1-methyl-1H-pyrazol-4-yl)nicotinamide]
7 | > 1000 nM | CN1CCN(c2ccc(C(=O)N3CC[C@@H](NC(=O)c4cc(-c5cnn(C)c5)cnc4N)C3)cc2)CC1 [Example 416, (R)-2-amino-5-(1-methyl-1H-pyrazol-4-yl)-N-(1-(4-(4-methylpiperazin-1-yl)benzoyl)pyrrolidin-3-yl)nicotinamide]

The remaining lines, values behind:

Row | SMILES | IC50
8 | Nc1ncc(-c2ccccc2)cc1C(=O)N[C@@H]1CCN(C(=O)c2ccc(-c3ccc(F)cc3Cl)cc2)C1 [Example 775, (R)-2-amino-N-(1-(2′-chloro-4′-fluoro-[1,1′-biphenyl]-4-carbonyl)pyrrolidin-3-yl)-5-phenylnicotinamide] | 100 to 1000 nM
9 | Cc1cc(C(=O)N2CC[C@@H](NC(=O)c3cc(-c4cnn(C)c4)cnc3N)C2)c(N)c(-c2ccccc2)c1 [Example 485, (R)-2-amino-N-(1-(2-amino-5-methyl-[1,1′-biphenyl]-3-carbonyl)pyrrolidin-3-yl)-5-(1-methyl-1H-pyrazol-4-yl)nicotinamide] | 100 to 1000 nM
10 | CN1CC[C@@H](NCc2ccc(-c3cccc(OC(=O)N4CC[C@@H](NC(=O)c5cc(-c6cnn(C)c6)cnc5N)C4)c3)cc2)C1 [Example 310, 4′-((((R)-1-methylpyrrolidin-3-yl)amino)methyl)-[1,1′-biphenyl]-3-yl (R)-3-(2-amino-5-(1-methyl-1H-pyrazol-4-yl)nicotinamido)pyrrolidine-1-carboxylate] | 100 to 1000 nM
11 | Cn1cc(-c2cnc(N)c(C(=O)N[C@@H]3CCN(C(=O)c4ccc(-c5ccc(Oc6ccccc6)cc5)cc4)C3)c2)cn1 [Example 527, (R)-2-amino-5-(1-methyl-1H-pyrazol-4-yl)-N-(1-(4′-phenoxy-[1,1′-biphenyl]-4-carbonyl)pyrrolidin-3-yl)nicotinamide] | 100 to 1000 nM
12 | Cn1cc(-c2cnc(N)c(C(=O)N[C@@H]3CCN(C(=S)Nc4ccc(Br)cc4)C3)c2)cn1 [Example 46, (R)-2-amino-N-(1-((4-bromophenyl)carbamothioyl)pyrrolidin-3-yl)-5-(1-methyl-1H-pyrazol-4-yl)nicotinamide] | > 1000 nM
13 | Cn1cc(-c2cnc(N)c(C(=O)N[C@@H]3CCN(C(=O)Oc4cccc(C#N)c4)C3)c2)cn1 [Example 87, 3-cyanophenyl (R)-3-(2-amino-5-(1-methyl-1H-pyrazol-4-yl)nicotinamido)pyrrolidine-1-carboxylate] | > 1000 nM
14 | Cn1cc(-c2cnc(N)c(C(=O)N[C@@H]3CCN(C(=O)Oc4cc(Cl)cc(Cl)c4)C3)c2)cn1 [Example 116, 3,5-dichlorophenyl (R)-3-(2-amino-5-(1-methyl-1H-pyrazol-4-yl)nicotinamido)pyrrolidine-1-carboxylate] | 100 to 1000 nM
15 | Cn1cc(-c2cnc(N)c(C(=O)N[C@@H]3CCN(C(=O)c4cccc5c(Br)cccc45)C3)c2)cn1 [Example 669, (R)-2-amino-N-(1-(5-bromo-1-naphthoyl)pyrrolidin-3-yl)-5-(1-methyl-1H-pyrazol-4-yl)nicotinamide] | > 1000 nM
16 | CN1CCN(Cc2ccc(-c3cccc(CN4CC[C@@H](NC(=O)c5cc(-c6cnn(C)c6)cnc5N)C4)c3)cc2)CC1 [Example 246, (R)-2-amino-5-(1-methyl-1H-pyrazol-4-yl)-N-(1-((4′-((4-methylpiperazin-1-yl)methyl)-[1,1′-biphenyl]-3-yl)methyl)pyrrolidin-3-yl)nicotinamide] | > 1000 nM
17 | CN1CCN(CCn2cc(-c3cccc(OC(=O)N4CC[C@@H](NC(=O)c5cc(-c6cnn(C)c6)cnc5N)C4)c3)cn2)CC1 [Example 288, 3-(1-(2-(4-methylpiperazin-1-yl)ethyl)-1H-pyrazol-4-yl)phenyl (R)-3-(2-amino-5-(1-methyl-1H-pyrazol-4-yl)nicotinamido)pyrrolidine-1-carboxylate] | > 1000 nM
18 | CN(C(=O)c1cc(-c2cnn(C)c2)cnc1N)[C@@H]1CCN(C(=O)Oc2cccc(-c3ccccc3)c2)C1 [Example 130, [1,1′-biphenyl]-3-yl (R)-3-(2-amino-N-methyl-5-(1-methyl-1H-pyrazol-4-yl)nicotinamido)pyrrolidine-1-carboxylate] | > 1000 nM
19 | Cn1cc(-c2cnc(N)c(C(=O)N[C@@H]3CCN(C(=S)Nc4ccc(Cl)c(Cl)c4)C3)c2)cn1 [Example 44, (R)-2-amino-N-(1-((3,4-dichlorophenyl)carbamothioyl)pyrrolidin-3-yl)-5-(1-methyl-1H-pyrazol-4-yl)nicotinamide] | > 1000 nM
20 | Cn1cc(-c2cnc(N)c(C(=O)N[C@@H]3CCN(C(=O)c4cccc(Oc5ccc(CN6CCC[C@@H]6CO)cc5)c4)C3)c2)cn1 [Example 447, 2-amino-N—((R)-1-(3-(4-(((R)-2-(hydroxymethyl)pyrrolidin-1-yl)methyl)phenoxy)benzoyl)pyrrolidin-3-yl)-5-(1-methyl-1H-pyrazol-4-yl)nicotinamide] | > 1000 nM
21 | Cn1cc(-c2cnc(N)c(C(=O)N[C@@H]3CCN(C(=O)c4cccc(-c5ccccc5Cl)c4)C3)c2)cn1 [Example 478, (R)-2-amino-N-(1-(2′-chloro-[1,1′-biphenyl]-3-carbonyl)pyrrolidin-3-yl)-5-(1-methyl-1H-pyrazol-4-yl)nicotinamide] | > 1000 nM
22 | Cn1cc(-c2cnc(N)c(C(=O)N[C@@H]3CCN(C(=O)c4ccc(-c5cccc(Cl)c5)cc4)C3)c2)cn1 [Example 360, (R)-2-amino-N-(1-(3′-chloro-[1,1′-biphenyl]-4-carbonyl)pyrrolidin-3-yl)-5-(1-methyl-1H-pyrazol-4-yl)nicotinamide] | 10 to 100 nM
